Results reported in the supplement of paper PMC10307832.

Columns and labels:
Assay in all cases: relative viability (nuclei count vs DMSO), 5 days (fraction); higher = more cells survive
Irinotecan + AZD7762 = compound: CCc1c2c(nc3ccc(OC(=O)N4CCC(N5CCCCC5)CC4)cc13)-c1cc3c(c(=O)n1C2)COC(=O)[C@]3(O)CC [Irinotecan] + NC(=O)Nc1cc(-c2cccc(F)c2)sc1C(=O)N[C@H]1CCCNC1 [AZD7762] (partner 0.2 µM)
Method in brief: (§1)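 Each reported value is a median over duplicate plates. It expresses relative viability: treated-well nuclei count divided by vehicle-well nuclei count. Lung cancer cell lines in 1536-well plates were dosed by pin tool a day after seeding, alone with one drug or with a fixed anchor-drug dose plus five library-drug doses (not always all listed) in √10 steps, and nuclei were counted after 5 days.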

MK-8033 + Dasatinib = compound: Cn1cc(-c2cnc3ccc4ccc(CS(=O)(=O)NCc5ccccn5)cc4c(=O)c3c2)cn1 [MK-8033] + Cc1nc(Nc2ncc(C(=O)Nc3c(C)cccc3Cl)s2)cc(N2CCN(CCO)CC2)n1 [Dasatinib] (partner 0.075 µM)
Method in brief: as §1

MK-8033 + Foretinib = compound: Cn1cc(-c2cnc3ccc4ccc(CS(=O)(=O)NCc5ccccn5)cc4c(=O)c3c2)cn1 [MK-8033] + COc1cc2c(Oc3ccc(NC(=O)C4(C(=O)Nc5ccc(F)cc5)CC4)cc3F)ccnc2cc1OCCCN1CCOCC1 [Foretinib] (partner 0.25 µM)
Method in brief: as §1

RU-SKI 43 + Pemetrexed = compound: CC[C@@H](C)CNCC(=O)N1CCC2=C([C@@H]1COC3=CC=CC(=C3)C)C=CS2 [RU-SKI 43] + Nc1nc2[nH]cc(CCc3ccc(C(=O)N[C@@H](CCC(=O)O)C(=O)O)cc3)c2c(=O)[nH]1 [Pemetrexed] (partner 0.2 µM)
Method in brief: as §1

NCI-H647 was tested, and the relative viability (Irinotecan + AZD7762; first compound 0.6325 µM) was 0.294, the relative viability (Irinotecan + AZD7762; first compound 2 µM) was 0.273 and the relative viability (Irinotecan + AZD7762; first compound 6.325 µM) was 0.131. For the same cell line, the relative viability (Irinotecan + AZD7762; first compound 20 µM) was 0.2, the relative viability (MK-8033 + Dasatinib; first compound 0.02 µM) was 0.164 and the relative viability (MK-8033 + Dasatinib; first compound 0.06325 µM) was 0.164. It also gave a relative viability (MK-8033 + Dasatinib; first compound 0.2 µM) of 0.188, a relative viability (MK-8033 + Dasatinib; first compound 0.6325 µM) of 0.197 and a relative viability (MK-8033 + Dasatinib; first compound 2 µM) of 0.173. It also gave a relative viability (MK-8033 + Foretinib; first compound 0.02 µM) of 1.09, a relative viability (MK-8033 + Foretinib; first compound 0.06325 µM) of 1.15 and a relative viability (MK-8033 + Foretinib; first compound 0.2 µM) of 1.02. For the same cell line, the relative viability (MK-8033 + Foretinib; first compound 0.6325 µM) was 1.17, the relative viability (MK-8033 + Foretinib; first compound 2 µM) was 1.1 and the relative viability (RU-SKI 43 + Pemetrexed; first compound 0.1 µM) was 0.169. For the same cell line, the relative viability (RU-SKI 43 + Pemetrexed; first compound 0.3162 µM) was 0.178, the relative viability (RU-SKI 43 + Pemetrexed; first compound 1 µM) was 0.199 and the relative viability (RU-SKI 43 + Pemetrexed; first compound 3.162 µM) was 0.169. The relative viability (RU-SKI 43 + Pemetrexed; first compound 10 µM) was 0.169.

NCI-H1793 was tested, and the relative viability (Irinotecan + AZD7762; first compound 2 µM) was 0.387, the relative viability (Irinotecan + AZD7762; first compound 6.325 µM) was 0.232 and the relative viability (Irinotecan + AZD7762; first compound 20 µM) was 0.217. It also gave a relative viability (MK-8033 + Dasatinib; first compound 0.02 µM) of 0.425, a relative viability (MK-8033 + Dasatinib; first compound 0.06325 µM) of 0.388 and a relative viability (MK-8033 + Dasatinib; first compound 0.2 µM) of 0.394. For the same cell line, the relative viability (MK-8033 + Dasatinib; first compound 0.6325 µM) was 0.365, the relative viability (MK-8033 + Dasatinib; first compound 2 µM) was 0.338 and the relative viability (MK-8033 + Foretinib; first compound 0.02 µM) was 0.696. It also gave a relative viability (MK-8033 + Foretinib; first compound 0.06325 µM) of 0.515, a relative viability (MK-8033 + Foretinib; first compound 0.2 µM) of 0.615 and a relative viability (MK-8033 + Foretinib; first compound 0.6325 µM) of 0.574. For the same cell line, the relative viability (MK-8033 + Foretinib; first compound 2 µM) was 0.784, the relative viability (RU-SKI 43 + Pemetrexed; first compound 0.1 µM) was 1.01 and the relative viability (RU-SKI 43 + Pemetrexed; first compound 0.3162 µM) was 0.995. For the same cell line, the relative viability (RU-SKI 43 + Pemetrexed; first compound 1 µM) was 0.941, the relative viability (RU-SKI 43 + Pemetrexed; first compound 3.162 µM) was 0.772 and the relative viability (RU-SKI 43 + Pemetrexed; first compound 10 µM) was 1.02.

LCLC-97TM1 gave a relative viability (Irinotecan + AZD7762; first compound 0.6325 µM) of 0.0915, a relative viability (Irinotecan + AZD7762; first compound 2 µM) of 0.143 and a relative viability (Irinotecan + AZD7762; first compound 6.325 µM) of 0.105. The relative viability (Irinotecan + AZD7762; first compound 20 µM) was 0.116, the relative viability (MK-8033 + Dasatinib; first compound 0.02 µM) was 0.887 and the relative viability (MK-8033 + Dasatinib; first compound 0.06325 µM) was 0.814. For the same cell line, the relative viability (MK-8033 + Dasatinib; first compound 0.2 µM) was 0.803, the relative viability (MK-8033 + Dasatinib; first compound 0.6325 µM) was 0.84 and the relative viability (MK-8033 + Dasatinib; first compound 2 µM) was 0.939. It also gave a relative viability (MK-8033 + Foretinib; first compound 0.02 µM) of 0.9, a relative viability (MK-8033 + Foretinib; first compound 0.06325 µM) of 0.924 and a relative viability (MK-8033 + Foretinib; first compound 0.2 µM) of 0.925. It also gave a relative viability (MK-8033 + Foretinib; first compound 0.6325 µM) of 0.951, a relative viability (MK-8033 + Foretinib; first compound 2 µM) of 0.969 and a relative viability (RU-SKI 43 + Pemetrexed; first compound 0.1 µM) of 0.188. It also gave a relative viability (RU-SKI 43 + Pemetrexed; first compound 0.3162 µM) of 0.175, a relative viability (RU-SKI 43 + Pemetrexed; first compound 1 µM) of 0.19 and a relative viability (RU-SKI 43 + Pemetrexed; first compound 3.162 µM) of 0.184. It also gave a relative viability (RU-SKI 43 + Pemetrexed; first compound 10 µM) of 0.178.

Cell Line HOP-62 has a relative viability (Irinotecan + AZD7762; first compound 0.6325 µM) of 0.211, a relative viability (Irinotecan + AZD7762; first compound 2 µM) of 0.316 and a relative viability (Irinotecan + AZD7762; first compound 6.325 µM) of 0.236. The relative viability (Irinotecan + AZD7762; first compound 20 µM) was 0.161, the relative viability (MK-8033 + Dasatinib; first compound 0.02 µM) was 0.536 and the relative viability (MK-8033 + Dasatinib; first compound 0.06325 µM) was 0.535. For the same cell line, the relative viability (MK-8033 + Dasatinib; first compound 0.2 µM) was 0.581, the relative viability (MK-8033 + Dasatinib; first compound 0.6325 µM) was 0.66 and the relative viability (MK-8033 + Dasatinib; first compound 2 µM) was 0.599. For the same cell line, the relative viability (MK-8033 + Foretinib; first compound 0.02 µM) was 1.07, the relative viability (MK-8033 + Foretinib; first compound 0.06325 µM) was 1.07 and the relative viability (MK-8033 + Foretinib; first compound 0.2 µM) was 1.03. The relative viability (MK-8033 + Foretinib; first compound 0.6325 µM) was 1.06, the relative viability (MK-8033 + Foretinib; first compound 2 µM) was 1.18 and the relative viability (RU-SKI 43 + Pemetrexed; first compound 0.1 µM) was 0.327. It also gave a relative viability (RU-SKI 43 + Pemetrexed; first compound 0.3162 µM) of 0.292, a relative viability (RU-SKI 43 + Pemetrexed; first compound 1 µM) of 0.344 and a relative viability (RU-SKI 43 + Pemetrexed; first compound 3.162 µM) of 0.334. The relative viability (RU-SKI 43 + Pemetrexed; first compound 10 µM) was 0.284.
